The record followed here is US20060205642A1, “Oral methods of treatment using proANF peptides” (priority 2005, published 2006).

A short description of data set [1]: Infusion into human subjects with Class III NYHA congestive heart failure. The data set is classed as in vivo, humans. The note with it: for hypotension: human, in vivo. Here is the method: Human proANF's 1-30, 31-67, 79-98, and 99-126 (i.e., ANF) were infused into human subjects with Class III New York Heart Association congestive heart failure (CHF). An identical protocol to that used in example V where these peptides were infused into healthy human subjects was utilized. (See Attachment C and F for a detailed description of this protocol). The human subjects with congestive heart failure received an identical dose (0.1 μg/kg body wt/minute for 60 minutes) that the healthy human subjects received. […] This striking urine output secondary to proANF 31-67 was significant at P<0.0001 compared to the pre-infusion output of the congestive heart failure subjects (n=6).

Data set [2] concerns renal medullary Na+-K+-ATPase. In words: Inhibition of renal medullary Na+-K+-ATPase activity (FIG. 9). Particulars: for inhibition of renal medullary Na+-K+-ATPase activity: 10^-11 M, n=6, ANOVA. Type of data set: biochemical. An excerpt:
FIG. 9. Inhibition of renal medullary Na+-K+-ATPase activity by proANF 79-98 (kaliuretic peptide), proANF 1-30 (long acting natriuretic peptide), proANF 31-67 (vessel dilator), and angiotensin II at their […] concentrations.

Data set [3] concerns particulate guanylate cyclase. In words: Particulate guanylate cyclase activity in the kidney. The data set is classed as biochemical. The note with it: 1 μM; whole kidney homogenates, renal cortical and medullary membranes, isolated distal nephrons. Here is the method: Testing is also carried out to determine biologic effects of these peptides by measuring their effects on particulate guanylate activity in the kidney.

A short description of data set [4]: Rat clearance model (diuresis and salt excretion). Type of data set: in vivo, Munich-Wistar rats. The note with it: means ± SE. As for the experimental part:
The same three peptides and ANF from Example I are tested using the rat clearance model. Six control rats and six experimental Munich-Wistar rats, each weighing 150-200 grams, are used for each peptide, with catheters being placed in both jugular veins and in the femoral artery. The ureters are cannulated for simultaneous urine collections with femoral artery blood collections.
After inserting the catheters, a stabilization of one hour is allowed. A 10 μg/kg bolus of each of the respective human sequences of the peptides is given via the jugular vein to six experimental rats followed by a sustaining infusion of 0.1 μg/kg/min for 60 minutes. Blood and urine samples are collected at 20 minute intervals during this 60 minute infusion. In both the control and experimental animals, hematocrits and plasma sodium values remained at the same levels pre- and post-infusion while blood pressure decreased with each of these peptides (see Attachment B).

The next data set relates to porcine aortas. In words: Vasodilation of porcine aortic strips preconstricted with 0.3 micromolar phenylephrine. Here is the method:
30 Kg pigs are sacrificed, and aortic strips are harvested. The strips are attached to F-60 transducer (Narco-BioSystems, Houston, Tex.) and attached to a physiography (Narco-BioSystems) while being submerged in a muscle tissue bath comprising a Krebs Ringer solution at 37° C., with 95% O2-5% CO2, bubbled through the bath. Percentage vasodilation is measured versus time after preconstriction with 0.3 micromolar phenylephrine. […] (Vesely et al., Biochem. Biophys. Res. Commun. 148:1540-1548, 1987).

The subject of data set [5] is prostaglandin E2 (PGE2) synthesis. In words: Prostaglandin E2 synthesis (FIG. 8). Type of data set: biochemical. The note with it: n=6, ANOVA and Duncan's MRT.
Data set [6] deals with particulate guanylate cyclase. In words: Cyclic GMP / particulate guanylate cyclase activation in cultured smooth muscle cells and porcine aorta. The data set is classed as cell-based.
A short description of data set [7]: Infusion into healthy human subjects. The data set is classed as in vivo. Particulars: healthy humans. Here is the method:
Infusion of these peptides into healthy human subjects was performed as follows: Human pro-ANF 1-30, pro-ANF 31-67, and pro-ANF 79-98, and hANF (i.e., pro-ANF 99-126, were synthesized by Peninsula Laboratories (Belmont, Calif.). High pressure liquid chromatography (HPLC) analysis was performed on a sample of each of the four peptides to ensure purity. The peptides were dissolved in a sterile 0.9% saline solution to a concentration of 100 μg/ml and dispensed in 2 and 5 ml aliquots into sealed sterile vials. At the time of dispensing, randomly selected vials were tested for pyrogens and sterility. Prior to labeling the vials, the actual peptide content of the dispensed solution were determined by direct radioimmunoassay to account for any possible absorption of the respective peptides to the walls of the vials. All vials were then stored at −80° C. until thawed for individual study.
Normal healthy subjects were chosen on the basis of age (between 20 and 50 years), physical examination and biochemical screenings. The subjects consumed their normal diets prior to testing. The subjects fasted overnight and were tested in the morning in the seated position. Intravenous catheters were placed bilaterally for the administration of pro-hANF 1-30, pro-hANF 31-67, pro-hANF 79-98 and hANF (pro-hANF 99-126) and for blood sampling. After completion of a 45-minute equilibration period, there were three […] phases of the study: baseline, experimental infusion (60 minutes) and recovery (3 hours). The baseline phase consisted of two 30 minute urine collection periods, the experimental phase consisted of three 20 minute urine and plasma collection periods, and the recovery phase consisted of two 30 minute urine and plasma collection periods each hour for three hours post-infusion. Urine output was replaced on a milliliter per milliliter basis throughout the study by administering oral water or orange juice. Urine samples were obtained by voiding at the designated collection periods.
The 36 subjects were divided into 6 groups. One group (i.e., the control group) received a placebo infusion of 0.9% sodium chloride during the experimental infusion phase. […] The four remaining groups of six subjects each received human pro-hANF 1-30, pro-hANF 31-67, pro-hANF 79-98 and HANF. The four groups received the peptides by continuous infusion at the rate of 0.1 μg/kg per minute. The volume administered per hour during the experimental infusion phase was 10 ml for all four peptides and the placebo. All infusions were given by a constant-rate infusion pump, with the final concentrations of prohANFs adjusted for the subjects' body weight. The subjects heart rate and cuff blood pressure were taken at 5 minute intervals throughout the study. The excreted urine was analyzed for sodium concentration.

The target in data set [8] is particulate guanylate cyclase of porcine aorta and cultured smooth muscle cells (porcine).
The mark [9] stands for this setting: A, control period (before peptide).
Setting [10] is: B, first 60-minute experiment period, 10 μg/kg bolus then 0.1 μg/kg/min.
Where [11] appears, read: C, second 60-minute experimental period.

A value given as a limit tells only on which side of the number the result lay.

For `CC[C@H](C)[C@@H]1NC(=O)[C@H](CCCNC(=N)N)NC(=O)[C@H](CC(=O)O)NC(=O)[C@H](CCSC)NC(=O)[C@H](CCCNC(=N)N)NC(=O)CNC(=O)CNC(=O)[C@H](Cc2ccccc2)NC(=O)[C@@H](NC(=O)[C@H](CO)NC(=O)[C@H](CO)NC(=O)[C@H](CCCNC(=N)N)NC(=O)[C@H](CCCNC(=N)N)NC(=O)[C@H](CC(C)C)NC(=O)[C@@H](N)CO)CSSC[C@@H](C(=O)N[C@@H](CC(N)=O)C(=O)N[C@@H](CO)C(=O)N[C@@H](Cc2ccccc2)C(=O)N[C@@H](CCCNC(=N)N)C(=O)N[C@@H](Cc2ccc(O)cc2)C(=O)O)NC(=O)CNC(=O)[C@H](CC(C)C)NC(=O)CNC(=O)[C@H](CO)NC(=O)[C@H](CCC(N)=O)NC(=O)[C@H](C)NC(=O)CNC1=O` [ANF, reference compound], the hypotension entry in data set [1] is reported as “became hypotensive”.
As for `COc1ccc2cc([C@H](C)C(=O)O)ccc2c1` [Naproxen, reference compound], in data set [2] (0.5 mM), the “blockade of the peptides' effects on renal medullary Na+-K+-ATPase” value was “completely blocked”.
Consider “H-NPMYNAVSNADLMDFKNLLDHLEEKMPLED-OH [proANF 1-30]”, for which the “inhibition of renal medullary Na+-K+-ATPase activity” value in data set [2] is listed as “significant at P<0.01”. For the same molecule, the “particulate guanylate cyclase activity” value in data set [3] is reported as “enhance”. The “FENa, fractional excretion of sodium” value in [4] (setting [9]) was found to be 0.023 ± 0.002%; in data set [4] (setting [10]) it was 0.241 ± 0.101%; in [4] (setting [11]) it was 0.285 ± 0.094%. The “UNa, urinary sodium” value in data set [4] (setting [9]) was found to be 34.13 ± 10.98 meq/1; in [4] (setting [10]), 64.83 ± 12.93 meq/1; in data set [4] (setting [11]), 89.50 ± 19.82 meq/1. Further, the entries for the “UNaV, urinary sodium excretion rate” value in [4] (setting [9]), in data set [4] (setting [10]) and in [4] (setting [11]) were 36.37 ± 8.09 μeq · min^−1 · g kidney wt^−1, 224.30 ± 60.34 μeq · min^−1 · g kidney wt^−1 and 384.98 ± 124.39 μeq · min^−1 · g kidney wt^−1, respectively. Also, the “V, urine flow rate” value in data set [4] (setting [9]) is reported as 1.83 ± 0.27 μl · min^−1 · g kidney wt^−1; in [4] (B, first 60-minute experiment period, 10 μg/kg bolus then 0.1 μg/kg/min via jugular vein) it was 3.41 ± 0.48 μl · min^−1 · g kidney wt^−1; in data set [4] (C, second 60-minute experimental period, 10 μg/kg bolus then 0.1 μg/kg/min), 4.31 ± 0.84 μl · min^−1 · g kidney wt^−1. Besides, the “increase in cyclic GMP levels over baseline levels associated with vasodilation” value in the data set on porcine aortas is “four-to-five fold”. In addition, the “prostaglandin E2 (PGE2) synthesis” value in data set [5] was “increase prostaglandin E2 (PGE2) synthesis”. Also, in [6] (cultured smooth muscle cells), the “cyclic GMP levels in cultured smooth muscle cells” value was “increase cyclic GMP levels”. For the same molecule, the “concentration of maximal activation of guanylate cyclase activity” value in [6] (porcine aorta and isolated smooth muscle cells) is recorded as “about 1 μM”. Besides, the EC50 in data set [6] (porcine aorta and isolated smooth muscle cells, read-out: half maximal activation (ED5o) of guanylate cyclase) was roughly 10 nM. For the same molecule, the “increase of fractional excretion of sodium” value in [1] (CHF individuals) is 3 fold. Moreover, in data set [1] (CHF subjects, 100 ng/kg body weight/min for 60 minutes), the “enhancement of sodium excretion” value was “three-to-eight fold”. Further, the hypotension entry in data set [1] was “None became hypotensive”. Further, in data set [1] (humans with congestive heart failure, listed as Pro ANF's 1-30), the “time after stopping infusion for which diuresis / urine flow is still significantly elevated (P<0.01)” value is no less than 3 h. The “duration of sodium excreting effects compared to ANF” value is reported as “significantly (P<0.001) prolonged compared to ANF” in data set [7] and “last significantly (P<0.001) longer than ANF's effects” in data set [7] (listed as ProANF 1-30). Besides, the potassium excretion result in [7] (100 ng/kg body wt) is recorded as “significant (P<0.05)”. For the same molecule, the “increase in urine volume (in words)” value in data set [7] (100 ng/kg body wt per minute for 1 hour i.v., n=6, ANOVA) was “significant”. In addition, the “sodium excretion (in words)” value in data set [7] (100 ng/kg body wt per minute for 60 minutes, vs baseline) is listed as “significantly (P<0.05) increased”. Besides, in data set [7] (100 ng/kg body wt per minute i.v. for 60 min, n=6), the “systolic and diastolic blood pressures” value is recorded as “significant”.
As to angiotensin II [reference compound], the “inhibition of renal medullary Na+-K+-ATPase activity” value in [2] was “significant at P<0.01”.
With “human atrial natriuretic factor (ANF) (peptide)”, in data set [8], the half maximal activation (ED50) of guanylate cyclase activity came out at 10 nM.
H-EVVPPQVLSEPNEEAGAALSPLPEVPPWTGEVSPAQR-OH [human pro-ANF 31-67] displayed a half maximal activation (ED50) of guanylate cyclase activity in data set [8] of 10 nM.
H-NPMYNAVSNADLMDFKNLLDHLEEKMPLED-OH [human pro-ANF 1-30]: the half maximal activation (ED50) of guanylate cyclase activity in data set [8] worked out at 10 nM.
Still for that read-out and setting: under H-SSDRSALLKSKLRALLTAPR-OH [human pro-ANF 79-98] stands 10 nM.
